Where “and” joins values, the source holds several entries; their conditions need not be identical. Equal values may be shown once. Inconclusive results and toxic doses are left out.
Tested on: CD2F1 mice, L1210 leukemia ip, survival T/C
Test: NCI In Vivo Anticancer Drug Screen. Data for tumor model L1210 Leukemia (intraperitoneal) in CD2F1 (CDF1) mice
Settings: endpoint: mean survival time, higher = longer survival
Outline: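 Mice carrying a transplanted tumor received test compound or vehicle alone. The value is the measurement in the treated group divided by that in the vehicle-treated control group.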

**Q.** With `Nc1ncnc2c1ncn2C1C=C(CO)C(O)C1O` (stereo not drawn) as the compound, how does the T/C (dose: 0.25 mg/kg/injection, schedule: Q01DX009 (ip), vehicle: Klucel (hydroxypropylcellulose) (HPC)) read?
**A.** 122 % of control

**Q.** What about the T/C (dose: 0.5 mg/kg/injection, schedule: Q01DX009 (ip), vehicle: Klucel (hydroxypropylcellulose) (HPC)) of the same compound?
**A.** 113 % of control and 123 % of control

**Q.** And the T/C (dose: 1.0 mg/kg/injection, schedule: Q01DX009 (ip), vehicle: Klucel (hydroxypropylcellulose) (HPC))?
**A.** 124 % of control

**Q.** And the T/C (dose: 4.0 mg/kg/injection, schedule: Q01DX009 (ip), vehicle: Klucel (hydroxypropylcellulose) (HPC))?
**A.** 122 % of control

**Q.** For `COc1ccc(OC)c(C2N(Cc3ccc(N(C)C)cc3)CCCN2Cc2ccc(N(C)C)cc2)c1`, which T/C (dose: 100.0 mg/kg/injection, schedule: Q04DX003 (ip), vehicle: saline with Tween-80) is on record?
**A.** 90 % of control

**Q.** What about the T/C (dose: 200.0 mg/kg/injection, schedule: Q04DX003 (ip), vehicle: saline with Tween-80) of the same compound?
**A.** 87 % of control

**Q.** Which T/C (dose: 100.0 mg/kg/injection, schedule: Q01DX001 (ip), vehicle: saline with Tween-80) does the source give for `CP(=O)(c1ccccc1)c1ccccc1` here?
**A.** 100 % of control

**Q.** And the T/C (dose: 200.0 mg/kg/injection, schedule: Q01DX001 (ip), vehicle: saline with Tween-80)?
**A.** 103 % of control

**Q.** What about the T/C (dose: 400.0 mg/kg/injection, schedule: Q01DX001 (ip), vehicle: saline with Tween-80) of the same compound?
**A.** 98 % of control

**Q.** What does the source list for `N=c1ccn2c(n1)OC1C(OP(=O)(O)O)C(CO)OC12` (stereo not drawn)?
**A.** T/C (dose: 2.9 mg/kg/injection, schedule: Q01DX009 (ip), vehicle: saline): 101 % of control; T/C (dose: 4.4 mg/kg/injection, schedule: Q03HX024 (oral), vehicle: water): 117 % of control; T/C (dose: 5.8 mg/kg/injection, schedule: Q01DX009 (ip), vehicle: saline): 119 % of control; T/C (dose: 8.0 mg/kg/injection, schedule: Q03HX008 (ip), vehicle: saline): 122 % of control; T/C (dose: 8.0 mg/kg/injection, schedule: Q03HX024 (ip), vehicle: saline): 177 % of control; T/C (dose: 8.7 mg/kg/injection, schedule: Q03HX024 (ip), vehicle: saline): 163 % of control; T/C (dose: 11.6 mg/kg/injection, schedule: Q01DX009 (oral), vehicle: water): 120 % of control; T/C (dose: 16.0 mg/kg/injection, schedule: Q03HX008 (oral), vehicle: saline): 120 % of control; T/C (dose: 16.0 mg/kg/injection, schedule: Q03HX024 (ip), vehicle: saline): 225 % of control; T/C (dose: 17.4 mg/kg/injection, schedule: Q03HX024 (ip), vehicle: saline): 217 % of control; T/C (dose: 17.4 mg/kg/injection, schedule: Q03HX024 (oral), vehicle: water): 163 % of control; T/C (dose: 23.2 mg/kg/injection, schedule: Q01DX009 (ip), vehicle: saline): 157 % of control; T/C (dose: 23.2 mg/kg/injection, schedule: Q01DX009 (oral), vehicle: water): 122 % of control; T/C (dose: 32.0 mg/kg/injection, schedule: Q01DX009 (ip), vehicle: saline): 159 % of control; T/C (dose: 32.0 mg/kg/injection, schedule: Q01DX009 (oral), vehicle: saline): 111 % of control; T/C (dose: 32.0 mg/kg/injection, schedule: Q03HX024 (ip), vehicle: saline): 283 % of control; T/C (dose: 32.0 mg/kg/injection, schedule: Q03HX024 (oral), vehicle: saline): 177 % of control; T/C (dose: 34.8 mg/kg/injection, schedule: Q03HX024 (ip), vehicle: saline): 229 % of control; T/C (dose: 34.8 mg/kg/injection, schedule: Q03HX024 (oral), vehicle: water): 193 % of control; T/C (dose: 46.4 mg/kg/injection, schedule: Q01DX009 (ip), vehicle: saline): 170 % of control; T/C (dose: 64.0 mg/kg/injection, schedule: Q01DX009 (ip), vehicle: saline): 169 % of control; T/C (dose: 64.0 mg/kg/injection, schedule: Q03HX024 (ip), vehicle: saline): 418 % of control; T/C (dose: 64.0 mg/kg/injection, schedule: Q03HX024 (oral), vehicle: saline): 231 % of control; T/C (dose: 69.6 mg/kg/injection, schedule: Q03HX024 (ip), vehicle: saline): 228 % of control; T/C (dose: 69.6 mg/kg/injection, schedule: Q03HX024 (oral), vehicle: water): 291 % of control; T/C (dose: 92.8 mg/kg/injection, schedule: Q01DX009 (ip), vehicle: saline): 195 % of control; T/C (dose: 92.8 mg/kg/injection, schedule: Q01DX009 (oral), vehicle: water): 153 % of control; T/C (dose: 128.0 mg/kg/injection, schedule: Q01DX001 (ip), vehicle: saline): 112 % of control; T/C (dose: 128.0 mg/kg/injection, schedule: Q01DX001 (oral), vehicle: saline): 104 % of control; T/C (dose: 128.0 mg/kg/injection, schedule: Q01DX009 (ip), vehicle: saline): 200 % of control; T/C (dose: 128.0 mg/kg/injection, schedule: Q01DX009 (oral), vehicle: saline): 166 % of control; T/C (dose: 128.0 mg/kg/injection, schedule: Q03HX008 (oral), vehicle: saline): 157 % of control; T/C (dose: 128.0 mg/kg/injection, schedule: Q03HX024 (oral), vehicle: saline): 231 % of control; T/C (dose: 128.0 mg/kg/injection, schedule: Q04DX003 (ip), vehicle: saline): 154 % of control; T/C (dose: 128.0 mg/kg/injection, schedule: Q04DX003 (oral), vehicle: saline): 111 % of control; T/C (dose: 139.2 mg/kg/injection, schedule: Q03HX024 (ip), vehicle: saline): 221 % of control; T/C (dose: 139.2 mg/kg/injection, schedule: Q03HX024 (oral), vehicle: water): 273 % of control; T/C (dose: 185.6 mg/kg/injection, schedule: Q01DX009 (oral), vehicle: water): 197 % of control; T/C (dose: 256.0 mg/kg/injection, schedule: Q01DX001 (ip), vehicle: saline): 122 % of control; T/C (dose: 256.0 mg/kg/injection, schedule: Q01DX001 (oral), vehicle: saline): 107 % of control; T/C (dose: 256.0 mg/kg/injection, schedule: Q01DX009 (oral), vehicle: saline): 201 % of control; T/C (dose: 256.0 mg/kg/injection, schedule: Q04DX003 (ip), vehicle: saline): 180 % of control; T/C (dose: 278.4 mg/kg/injection, schedule: Q03HX024 (ip), vehicle: saline): 86 % of control; T/C (dose: 371.2 mg/kg/injection, schedule: Q01DX009 (oral), vehicle: water): 174 % of control; T/C (dose: 512.0 mg/kg/injection, schedule: Q04DX003 (ip), vehicle: saline): 219 % of control; T/C (dose: 512.0 mg/kg/injection, schedule: Q04DX003 (oral), vehicle: saline): 173 % of control; T/C (dose: 1024.0 mg/kg/injection, schedule: Q01DX001 (ip), vehicle: saline): 154 % of control; T/C (dose: 1024.0 mg/kg/injection, schedule: Q04DX003 (ip), vehicle: saline): 359 % of control; T/C (dose: 1024.0 mg/kg/injection, schedule: Q04DX003 (oral), vehicle: saline): 220 % of control
